# According to ChEMBL document CHEMBL1201862, “PubChem BioAssay data set” (2004):
#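 Assay format: 96-well plates, 48-hour exposure. GI50 marks 50% less growth.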 Activity calls are given as the source filed them. Rule as the data show it: active = GI50 up to about 1.1 µM and inactive = higher.
# Legend:
# Test in all cases: NCI anticancer screen, dose series, 48 h
# 786-0 = system: 786-0
# A498 = system: A498
# A549 = system: A549
# ACHN = system: ACHN
# CAKI-1 = system: CAKI-1
# CCRF-CEM = system: CCRF-CEM
# COLO 205 = system: COLO 205
# DLD-1 = system: DLD-1
# DMS-114 = system: DMS-114
# DMS-273 = system: DMS-273
# EKVX = system: EKVX
# HCC 2998 = system: HCC 2998
# HCT-116 = system: HCT-116
# HL-60 = system: HL-60
# HOP-18 = system: HOP-18
# HOP-62 = system: HOP-62
# HOP-92 = system: HOP-92
# HT-29 = system: HT-29
# IGROV-1 = system: IGROV-1
# K562 = system: K562
# KM-20L2 = system: KM-20L2
# KM12 = system: KM12
# LOX IMVI = system: LOX IMVI
# LXFL 529 = system: LXFL 529
# M14 = system: M14
# M19-MEL = system: M19-MEL
# MOLT-4 = system: MOLT-4
# Malme-3M = system: Malme-3M
# NCI-H226 = system: NCI-H226
# NCI-H23 = system: NCI-H23
# NCI-H460 = system: NCI-H460
# NCI-H522 = system: NCI-H522
# OVCAR-3 = system: OVCAR-3
# OVCAR-4 = system: OVCAR-4
# OVCAR-5 = system: OVCAR-5
# OVCAR-8 = system: OVCAR-8
# RPMI-8226 = system: RPMI-8226
# RXF 393 = system: RXF 393
# RXF 631 = system: RXF 631
# SF-268 = system: SF-268
# SF-295 = system: SF-295
# SF-539 = system: SF-539
# SK-MEL-28 = system: SK-MEL-28
# SK-MEL-2 = system: SK-MEL-2
# SK-MEL-5 = system: SK-MEL-5
# SK-OV-3 = system: SK-OV-3
# SN12C = system: SN12C
# SNB-19 = system: SNB-19
# SNB-75 = system: SNB-75
# SNB-78 = system: SNB-78
# SR = system: SR
# SW-620 = system: SW-620
# TK-10 = system: TK-10
# U-251 = system: U-251
# UACC-257 = system: UACC-257
# UACC-62 = system: UACC-62
# UO-31 = system: UO-31
# XF498 = system: XF498
# HCT-15 = system: HCT-15
smiles,measurement,setting,value
CCCC[C@H](CCc1ccccc1)N(C(=O)OC)N1CCC[C@H]1COC,GI50,786-0,21.4 µM (inactive)
same,GI50,A498,18.1 µM (inactive)
same,GI50,A549,24.8 µM (inactive)
same,GI50,ACHN,16.8 µM (inactive)
same,GI50,CAKI-1,29.9 µM (inactive)
same,GI50,CCRF-CEM,15.5 µM (inactive)
same,GI50,COLO 205,16.3 µM (inactive)
same,GI50,DLD-1,18.4 µM (inactive)
same,GI50,DMS-114,15.8 µM (inactive)
same,GI50,DMS-273,18.7 µM (inactive)
same,GI50,EKVX,17.5 µM (inactive)
same,GI50,HCC 2998,14.6 µM (inactive)
same,GI50,HCT-116,13.6 µM (inactive)
same,GI50,HL-60,46.7 µM (inactive)
same,GI50,HOP-18,27.2 µM (inactive)
same,GI50,HOP-62,23 µM (inactive)
same,GI50,HOP-92,18.6 µM (inactive)
same,GI50,HT-29,15.1 µM (inactive)
same,GI50,IGROV-1,20.9 µM (inactive)
same,GI50,K562,21.7 µM (inactive)
same,GI50,KM-20L2,15.1 µM (inactive)
same,GI50,KM12,18.8 µM (inactive)
same,GI50,LOX IMVI,18.3 µM (inactive)
same,GI50,LXFL 529,17.2 µM (inactive)
same,GI50,M14,26 µM (inactive)
same,GI50,M19-MEL,20.1 µM (inactive)
same,GI50,MOLT-4,24.2 µM (inactive)
same,GI50,Malme-3M,16.3 µM (inactive)
same,GI50,NCI-H226,20.2 µM (inactive)
same,GI50,NCI-H23,17.2 µM (inactive)
same,GI50,NCI-H460,17.1 µM (inactive)
same,GI50,NCI-H522,14.1 µM (inactive)
same,GI50,OVCAR-3,18.3 µM (inactive)
same,GI50,OVCAR-4,17.5 µM (inactive)
same,GI50,OVCAR-5,17.8 µM (inactive)
same,GI50,OVCAR-8,27.5 µM (inactive)
same,GI50,RPMI-8226,31.6 µM (inactive)
same,GI50,RXF 393,18.1 µM (inactive)
same,GI50,RXF 631,16.9 µM (inactive)
same,GI50,SF-268,19.5 µM (inactive)
same,GI50,SF-295,18.7 µM (inactive)
same,GI50,SF-539,18 µM (inactive)
same,GI50,SK-MEL-28,19.9 µM (inactive)
same,GI50,SK-MEL-2,18.5 µM (inactive)
same,GI50,SK-MEL-5,18.3 µM (inactive)
same,GI50,SK-OV-3,24.1 µM (inactive)
same,GI50,SN12C,17.9 µM (inactive)
same,GI50,SNB-19,16.4 µM (inactive)
same,GI50,SNB-75,35.1 µM (inactive)
same,GI50,SNB-78,21.3 µM (inactive)
same,GI50,SR,24.3 µM (inactive)
same,GI50,SW-620,16.3 µM (inactive)
same,GI50,TK-10,26.4 µM (inactive)
same,GI50,U-251,15.4 µM (inactive)
same,GI50,UACC-257,18 µM (inactive)
same,GI50,UACC-62,16 µM (inactive)
same,GI50,UO-31,16.7 µM (inactive)
same,GI50,XF498,14 µM (inactive)
CCc1nc(N)nc(C(=O)NCCNC(=O)c2nc(N)nc(CC)c2C)c1C,GI50,786-0,> 100 µM (inactive)
same,GI50,A498,> 100 µM (inactive)
same,GI50,A549,> 100 µM (inactive)
same,GI50,ACHN,> 100 µM (inactive)
same,GI50,CAKI-1,> 100 µM (inactive)
same,GI50,DLD-1,> 100 µM (inactive)
same,GI50,DMS-114,> 100 µM (inactive)
same,GI50,DMS-273,> 100 µM (inactive)
same,GI50,EKVX,> 100 µM (inactive)
same,GI50,HCC 2998,> 100 µM (inactive)
same,GI50,HCT-116,> 100 µM (inactive)
same,GI50,HCT-15,> 100 µM
same,GI50,HL-60,> 100 µM (inactive)
same,GI50,HOP-18,> 100 µM (inactive)
same,GI50,HOP-62,> 100 µM (inactive)
same,GI50,HOP-92,> 100 µM (inactive)
same,GI50,HT-29,> 100 µM (inactive)
same,GI50,IGROV-1,> 100 µM (inactive)
same,GI50,K562,> 100 µM (inactive)
same,GI50,KM-20L2,> 100 µM (inactive)
same,GI50,KM12,> 100 µM (inactive)
same,GI50,LOX IMVI,> 100 µM (inactive)
same,GI50,LXFL 529,> 100 µM (inactive)
same,GI50,M14,> 100 µM (inactive)
same,GI50,M19-MEL,> 100 µM (inactive)
same,GI50,MOLT-4,> 100 µM (inactive)
same,GI50,Malme-3M,> 100 µM (inactive)
same,GI50,NCI-H226,> 100 µM (inactive)
same,GI50,NCI-H23,> 100 µM (inactive)
same,GI50,NCI-H460,> 100 µM (inactive)
same,GI50,OVCAR-3,> 100 µM (inactive)
same,GI50,OVCAR-4,> 100 µM (inactive)
same,GI50,OVCAR-5,> 100 µM (inactive)
same,GI50,OVCAR-8,> 100 µM (inactive)
same,GI50,RPMI-8226,> 100 µM (inactive)
same,GI50,RXF 393,> 100 µM (inactive)
same,GI50,RXF 631,> 100 µM (inactive)
same,GI50,SF-268,> 100 µM (inactive)
same,GI50,SF-295,> 100 µM (inactive)
same,GI50,SF-539,> 100 µM (inactive)
same,GI50,SK-MEL-28,> 100 µM (inactive)
same,GI50,SK-MEL-2,> 100 µM (inactive)
same,GI50,SK-MEL-5,> 100 µM (inactive)
same,GI50,SN12C,> 100 µM (inactive)
same,GI50,SNB-19,> 100 µM (inactive)
same,GI50,SNB-75,> 100 µM (inactive)
same,GI50,SNB-78,> 100 µM (inactive)
same,GI50,SW-620,> 100 µM (inactive)
same,GI50,TK-10,> 100 µM (inactive)
same,GI50,U-251,> 100 µM (inactive)
same,GI50,UACC-257,> 100 µM (inactive)
same,GI50,UACC-62,> 100 µM (inactive)
same,GI50,UO-31,> 100 µM (inactive)
same,GI50,XF498,> 100 µM (inactive)
O=C1C(=O)N(C2C3CC4CC(C3)CC2C4)C(=O)C(=O)C1c1nc2ccccc2o1 (centres undefined),GI50,786-0,26.3 µM (inactive)
same,GI50,A549,> 100 µM (inactive)
same,GI50,ACHN,> 100 µM (inactive)
same,GI50,CAKI-1,> 100 µM (inactive)
same,GI50,COLO 205,51.6 µM (inactive)
same,GI50,DLD-1,37.3 µM (inactive)
same,GI50,DMS-114,19.4 µM (inactive)
same,GI50,DMS-273,> 100 µM (inactive)
same,GI50,EKVX,> 100 µM (inactive)
same,GI50,HCC 2998,57.5 µM (inactive)
same,GI50,HCT-116,37 µM (inactive)
same,GI50,HCT-15,43.6 µM
same,GI50,HOP-18,54.2 µM (inactive)
same,GI50,HOP-62,> 100 µM (inactive)
same,GI50,HOP-92,61.1 µM (inactive)
same,GI50,HT-29,20.7 µM (inactive)
same,GI50,IGROV-1,42.3 µM (inactive)
same,GI50,K562,21.1 µM (inactive)
same,GI50,KM-20L2,82 µM (inactive)
same,GI50,KM12,> 100 µM (inactive)
same,GI50,LOX IMVI,> 100 µM (inactive)
same,GI50,LXFL 529,46.9 µM (inactive)
same,GI50,M14,83 µM (inactive)
same,GI50,M19-MEL,55 µM (inactive)
same,GI50,Malme-3M,36 µM (inactive)
same,GI50,NCI-H226,> 100 µM (inactive)
same,GI50,NCI-H23,41.6 µM (inactive)
same,GI50,NCI-H460,> 100 µM (inactive)
same,GI50,OVCAR-3,25.1 µM (inactive)
same,GI50,OVCAR-4,> 100 µM (inactive)
same,GI50,OVCAR-5,23.2 µM (inactive)
same,GI50,OVCAR-8,> 100 µM (inactive)
same,GI50,RPMI-8226,52.4 µM (inactive)
same,GI50,RXF 393,70 µM (inactive)
same,GI50,RXF 631,> 100 µM (inactive)
same,GI50,SF-268,92.9 µM (inactive)
same,GI50,SF-295,> 100 µM (inactive)
same,GI50,SF-539,90.6 µM (inactive)
same,GI50,SK-MEL-28,> 100 µM (inactive)
same,GI50,SK-MEL-2,> 100 µM (inactive)
same,GI50,SK-OV-3,> 100 µM (inactive)
same,GI50,SN12C,98.4 µM (inactive)
same,GI50,SNB-19,> 100 µM (inactive)
same,GI50,SNB-75,33.1 µM (inactive)
same,GI50,SNB-78,> 100 µM (inactive)
same,GI50,SW-620,55 µM (inactive)
same,GI50,TK-10,> 100 µM (inactive)
same,GI50,U-251,23.1 µM (inactive)
same,GI50,UACC-257,26.1 µM (inactive)
same,GI50,UACC-62,> 100 µM (inactive)
same,GI50,UO-31,> 100 µM (inactive)
same,GI50,XF498,74 µM (inactive)
